Measured values taken from US9718790B2, “Triazine derivative and pharmaceutical composition having an analgesic activity comprising the same” (SHIONOGI & CO., LTD., priority 2010, dated 2017).

Molecular target: human P2X3 receptor (Homo sapiens (Human), UniProt P56373)
Experiment: Evaluation of human P2X3 receptor inhibitory activity (Fluo-3 calcium fluorescence, FDSS 3000, ATP stimulation);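 also: stimulus was 50 nM ATP with fluorescence followed for 3 min, and the response per well was peak post-ATP fluorescence divided by the reading at measurement start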
Type: cell-based
[1] = C6BU-1 cells stably expressing human P2X3 receptor
[2] = C6BU-1 cells stably expressing human P2X3 receptor, Fluo-3 fluorescence, FDSS 3000
[3] = human P2X3 receptor, Test Example 1

human P2X3 receptor, sequence (P56373 whole entry): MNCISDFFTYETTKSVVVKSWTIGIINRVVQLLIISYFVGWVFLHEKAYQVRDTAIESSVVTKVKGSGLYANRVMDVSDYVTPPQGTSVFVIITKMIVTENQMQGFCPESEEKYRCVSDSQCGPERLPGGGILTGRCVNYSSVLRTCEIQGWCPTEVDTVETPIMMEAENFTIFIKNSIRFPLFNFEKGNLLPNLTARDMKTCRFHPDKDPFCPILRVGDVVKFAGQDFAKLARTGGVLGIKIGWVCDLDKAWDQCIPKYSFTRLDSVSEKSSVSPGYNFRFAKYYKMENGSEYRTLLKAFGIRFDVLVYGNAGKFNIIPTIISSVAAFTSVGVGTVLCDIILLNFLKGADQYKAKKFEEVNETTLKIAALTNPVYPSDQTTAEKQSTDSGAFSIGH

Structure (SMILES)	IC50 [1]	other results
COC(=O)C[C@@H](C)Cn1c(=O)[nH]/c(=N\c2ccc(OC(C)C)c(C)c2)n(Cc2ccc(Cl)cc2)c1=O [Compound I-0761]	15 nM	–
COC(=O)[C@H](C)[C@H](C)n1c(=O)[nH]/c(=N\c2ccc3oc(C)cc3c2)n(Cc2ccc(Cl)cc2)c1=O [Compound I-1323]	33 nM	–
O=c1[nH]/c(=N\c2ccc3nc(C4CC4)sc3c2)n(Cc2ccc(Cl)cc2)c(=O)n1CC(CO)CO [Compound I-1983]	10 nM	–
CCc1nc2ccc(/N=c3\[nH]c(=O)n(CCC(=O)NCCO)c(=O)n3Cc3ccc(Cl)cc3)cc2s1 [Compound I-1739]	–	IC50 [2]: 7 nM
CCOC(=O)CCn1c(=O)[nH]/c(=N\c2ccc(OC(C)C)c(CO)c2)n(Cc2ccc(C)cc2)c1=O [Compound I-1424]	35 nM	–
Cc1ccc(Cn2c(=O)[nH]c(=O)[nH]/c2=N\c2ccc(Oc3cncc(C(=O)O)c3)cc2)cc1 [Compound I-2102]	34 nM	–
COC(=O)[C@@H](C)Cn1c(=O)[nH]/c(=N\c2ccc(Oc3cc(C)nc(C)c3)cc2)n(Cc2ccc(C)cc2)c1=O [Compound I-1240]	18 nM	–
COC(=O)[C@H](C)Cn1c(=O)[nH]/c(=N\c2ccc(OC(C)C)c(C)c2)n(CC2CCCCC2)c1=O [Compound I-0631]	10 nM	–
Cc1ccc(Cn2c(=O)n(C[C@H](C)C(=O)O)c(=O)[nH]/c2=N\c2ccc(OC(C)C)c(OC(C)C)c2)cc1 [Compound I-1136]	–	IC50 [2]: 204 nM
CCOC(=O)CCn1c(=O)[nH]/c(=N\c2ccc(OC3CCC3)cc2)n(Cc2ccc(C)cc2)c1=O [Compound I-1282]	4 nM	–
C[C@@H](C(=O)O)[C@H](C)n1c(=O)[nH]/c(=N\c2ccc3c(c2)CCN3S(C)(=O)=O)n(Cc2ccc(Cl)cc2)c1=O [Compound I-1774]	–	IC50 [2]: 255 nM
CNC(=O)Cn1c(=O)[nH]/c(=N\c2ccc(Oc3ccon3)cc2)n(Cc2ccc(Cl)cc2)c1=O [Compound I-2590]	–	IC50 [3]: 17 nM
CCn1c(=O)[nH]/c(=N\c2ccc(Oc3cnc(C(=O)O)nc3)cc2)n(Cc2ccc(Cl)cc2)c1=O [Compound I-2285]	–	IC50 [3]: 15 nM
Cc1ccc(Cn2c(=O)n(C)c(=O)[nH]/c2=N\c2ccc(Oc3ccnc(CO)c3)cc2)cc1 [Compound I-2056]	26 nM	–
Cn1c(=O)[nH]/c(=N\c2ccc(Oc3cccc(C(=O)O)n3)cc2)n(C[C@H]2CC[C@H](C)CC2)c1=O [Compound I-2465]	–	IC50 [3]: 4 nM
CCOC(=O)CCn1c(=O)[nH]/c(=N\c2ccc3oc(CC)c(C)c3c2)n(Cc2ccc(Cl)cc2)c1=O [Compound I-1503]	–	IC50 [3]: 12 nM
CC(C)Oc1ccc(/N=c2\[nH]c(=O)n(CCC(=O)O)c(=O)n2CC2CCC3(CC2)CC3)cc1Cl [Compound I-1461]	25 nM	–
Cc1cc(/N=c2\[nH]c(=O)n(Cc3cccn(CC(=O)O)c3=O)c(=O)n2Cc2ccc(Cl)cc2)ccc1OC(C)C [Compound I-0760]	37 nM	–
CCCCOc1ccc(/N=c2\[nH]c(=O)n(C[C@H](C)C(=O)OC)c(=O)n2Cc2ccc(C)cc2)cc1 [Compound I-0816]	37 nM	–
NC(=O)CCn1c(=O)[nH]/c(=N\c2ccc(Oc3cccc(F)n3)cc2)n(Cc2ccc(Cl)cc2)c1=O [Compound I-2654]	–	IC50 [3]: 9 nM
Cc1ccc(Cn2c(=O)n(C[C@H](C)C(=O)O)c(=O)[nH]/c2=N\c2ccc(Cl)c(Cl)c2)cc1 [Compound I-1004]	–	IC50 [2]: 85 nM
CCOC(=O)CC(C)(C)n1c(=O)[nH]/c(=N\c2ccc(OC(C)C)c(Cl)c2)n(Cc2ccc(Cl)cc2)c1=O [Compound I-0810]	16 nM	–

Structure (SMILES)	IC50 [1]	other results
CCOC(=O)CCn1c(=O)[nH]/c(=N\c2ccc(CC(C)C)c(C)c2)n(Cc2ccc(C)cc2)c1=O [Compound I-1216]	13 nM	–
C[C@H](C(=O)O)[C@@H](C)n1c(=O)[nH]/c(=N\c2ccc(N3CCCCC3)cc2)n(Cc2ccc(Cl)cc2)c1=O [Compound I-1458]	25 nM	–
CC(C)Oc1ccc(/N=c2\[nH]c(=O)n([C@H](C)[C@H](C)C(=O)O)c(=O)n2Cc2ccc(Cl)cc2)cc1Cl [Compound I-1342]	10 nM	–
O=c1[nH]/c(=N\c2ccc(Oc3ccnc(O)c3)cc2)n(Cc2ccc(Cl)cc2)c(=O)n1CC(CO)CO [Compound I-1714]	–	IC50 [2]: 3 nM
Cc1ccc(Cn2c(=O)n(CCC(=O)O)c(=O)[nH]/c2=N\c2ccc(OC3CC3)c(Cl)c2)cc1 [Compound I-1608]	–	IC50 [2]: 100 nM
COC(=O)CCCCn1c(=O)[nH]/c(=N\c2ccc3nc(C)sc3c2)n(Cc2ccc(C)cc2)c1=O [Compound I-2155]	4 nM	–
O=c1[nH]/c(=N\c2ccc(Oc3cncc(CO)c3)cc2)n(Cc2ccc(Cl)cc2)c(=O)n1CCOC1CCCCO1 (stereo not shown) [Compound I-2077]	3 nM	–
NC(=O)Cn1c(=O)[nH]/c(=N\c2ccc(Oc3ncccn3)cc2)n(Cc2ccc(Cl)cc2)c1=O [Compound I-2686]	–	IC50 [3]: 36 nM
CCn1c(=O)[nH]/c(=N\c2ccc(Oc3ccc(C(=O)OC)c(F)c3)cc2)n(Cc2ccc(Cl)cc2)c1=O [Compound I-2218]	3 nM	–
CCOC(=O)CCn1c(=O)[nH]/c(=N\c2ccc(OC(C)C)c(OC)c2)n(Cc2ccc(C)cc2)c1=O [Compound I-1246]	6 nM	–
CCn1c(=O)[nH]/c(=N\c2ccc(Oc3ccnc(CO)c3)cc2)n(Cc2ccc(Cl)cc2)c1=O [Compound I-1844]	–	IC50 [2]: 4 nM
CCn1c(=O)[nH]/c(=N\c2ccc(Oc3cccc(C(=O)O)c3)cc2)n(Cc2ccc(C)cc2)c1=O [Compound I-2034]	9 nM	–
CCCc1ccc(/N=c2\[nH]c(=O)n(C[C@H](C)C(=O)O)c(=O)n2Cc2ccc(C)cc2)cc1Cl [Compound I-1267]	9 nM	–
Cc1cc(/N=c2\[nH]c(=O)n(C3CN(CC(=O)O)C3)c(=O)n2Cc2ccc(Cl)cc2)ccc1OC(C)C [Compound I-1742]	–	IC50 [2]: 135 nM
CCOC(=O)C1(Cn2c(=O)[nH]/c(=N\c3ccc4oc(CC)c(C)c4c3)n(Cc3ccc(Cl)cc3)c2=O)CC1 [Compound I-1538]	–	IC50 [3]: 17 nM
CNCCCn1c(=O)[nH]/c(=N\c2ccc(OC(C)C)c(F)c2)n(Cc2ccc(Cl)cc2)c1=O [Compound I-2316]	–	IC50 [3]: 51 nM
CCn1c(=O)[nH]/c(=N\c2ccc(Oc3cccc(C(=O)OC)c3)cc2)n(Cc2ccc(C)cc2)c1=O [Compound I-2028]	13 nM	–
CC(CO)(CO)Cn1c(=O)[nH]/c(=N\c2ccc(OCC3CC3)cc2)n(Cc2ccc(F)cc2)c1=O [Compound I-2617]	–	IC50 [3]: 42 nM
Cc1nc2ccc(/N=c3\[nH]c(=O)n(CCNCCO)c(=O)n3Cc3ccc(Cl)cc3)cc2s1 [Compound I-2163]	54 nM	–
Cc1ccc(Cn2c(=O)n(CCC(=O)O)c(=O)[nH]/c2=N\c2ccc(OC(C)C)cc2C)cc1 [Compound I-2048]	491 nM	–
Cc1cc(/N=c2\[nH]c(=O)n([C@@H]3CN[C@H](C(=O)O)C3)c(=O)n2Cc2ccc(Cl)cc2)ccc1OC(C)C [Compound I-0716]	102 nM	–
COC(=O)[C@@H](C)Cn1c(=O)[nH]/c(=N\c2cccc(C(C)C)c2)n(Cc2ccc(Cl)cc2)c1=O [Compound I-0777]	116 nM	–

Structure (SMILES)	IC50 [1]	other results
COC(=O)[C@@H](C)Cn1c(=O)[nH]/c(=N\c2ccc(CCC3CC3)c(C)c2)n(Cc2ccc(Cl)cc2)c1=O [Compound I-1023]	–	IC50 [2]: 300 nM
C[C@@H](Oc1ccc(/N=c2\[nH]c(=O)n(CCCO)c(=O)n2Cc2ccc(Cl)cc2)cc1)C(F)(F)F [Compound I-1620]	–	IC50 [2]: 14 nM
C[C@@H](Cn1c(=O)[nH]/c(=N\c2ccc(OC3CCC3)cc2)n(Cc2ccc(Cl)cc2)c1=O)C(=O)O [Compound I-1284]	15 nM	–
NC(=O)Cn1c(=O)[nH]/c(=N\c2ccc(OCC3CC3)cc2)n(Cc2ccc(Cl)cc2)c1=O [Compound I-1940]	55 nM	–
CC[C@@H](C)Oc1ccc(/N=c2\[nH]c(=O)n(C[C@H](C)C(=O)OC)c(=O)n2Cc2ccc(C)cc2)cc1C [Compound I-0823]	–	IC50 [3]: 11 nM
CNC(=O)CCn1c(=O)[nH]/c(=N\c2ccc(O[C@H](C)C(F)(F)F)cc2)n(Cc2ccc(Cl)cc2)c1=O [Compound I-1957]	22 nM	–
Cc1nc2ccc(/N=c3\[nH]c(=O)n(CCC4COC(C)(C)OC4)c(=O)n3Cc3ccc(Cl)cc3)cc2s1 [Compound I-1852]	–	IC50 [2]: 5 nM
CCn1c(=O)[nH]/c(=N\c2ccc(Oc3cccc(C(=O)OC)c3)cc2)n(Cc2ccc(Cl)cc2)c1=O [Compound I-1880]	–	IC50 [2]: 15 nM
Cc1ccc(Cn2c(=O)n(CC(C)(C)C(=O)O)c(=O)[nH]/c2=N\c2ccc(OCC3CC3)cc2)cc1 [Compound I-1268]	52 nM	–
COC(=O)[C@@H](C)Cn1c(=O)[nH]/c(=N\c2ccc(CC3CC3)c(Cl)c2)n(Cc2ccc(C)cc2)c1=O [Compound I-1511]	–	IC50 [3]: 29 nM
CCn1c(=O)[nH]/c(=N\c2ccc(Oc3cccc(C#N)n3)cc2)n(Cc2ccc(Cl)cn2)c1=O [Compound I-2373]	–	IC50 [3]: 33 nM
CCn1c(=O)[nH]/c(=N\c2ccc3oc(C)c(CC(=O)O)c3c2)n(Cc2ccc(Cl)cc2)c1=O [Compound I-2170]	819 nM	–
C[C@@H](C(=O)O)[C@H](C)n1c(=O)[nH]/c(=N\c2ccc3oc(-c4ccccc4)nc3c2)n(Cc2ccc(Cl)cc2)c1=O [Compound I-1814]	–	IC50 [2]: 299 nM
Cc1ccc(Cn2c(=O)n([C@@H](C)[C@@H](C)C(=O)O)c(=O)[nH]/c2=N\c2cccc(C(F)(F)F)c2)cc1 [Compound I-1335]	30 nM	–
O=C(O)CCn1c(=O)[nH]/c(=N\c2ccc(OCc3cccnc3)cc2)n(Cc2ccc(Cl)cc2)c1=O [Compound I-1632]	–	IC50 [2]: 389 nM
O=c1[nH]/c(=N\c2ccc(Oc3ccn[nH]3)cc2)n(Cc2ccc(Cl)cc2)c(=O)n1CC(CO)CO [Compound I-2454]	–	IC50 [3]: 35 nM
CNC(=O)CCn1c(=O)[nH]/c(=N\c2ccc3[nH]c(C)c(C)c3c2)n(Cc2ccc(Cl)cc2)c1=O [Compound I-1967]	8 nM	–
Cc1cc(/N=c2\[nH]c(=O)n([C@H]3CC[C@@H](C(=O)O)CC3)c(=O)n2Cc2ccc(Cl)cc2)ccc1OC(C)C [Compound I-0851]	–	IC50 [3]: 24 nM
CC(C)Oc1ccc(/N=c2\[nH]c(=O)n(CCC(=O)NN)c(=O)n2Cc2ccc(Cl)cc2)cc1F [Compound I-0644, 1-(4-chlorobenzyl)-6-(3-fluoro-4-isopropoxyphenylimino)-3-(2-hydrazinecarbonylethyl)-1,3,5-triazinane-2,4-dion]	40 nM	–
NC(=O)NC(=O)Cn1c(=O)[nH]/c(=N\c2ccc(Oc3ccon3)cc2)n(Cc2ccc(Cl)cc2)c1=O [Compound I-2694]	–	IC50 [3]: 3 nM
